The values that follow come from patent US4410459A, “Process for preparation of cytostatic compounds” (priority 1980, dated 1983).

A short description of series [1]: Acute toxicity in mice (i.p., Lichfield and Wilcoxon), with paralytic side effect. Type of series: in vivo, male Swiss mice. The conditions noted are these: for LD50: mouse, in vivo, ip; for Paralytic side effect: symbols 0 / + not defined. The protocol:
The acute toxicity of the compounds according to the invention was tested on male Swiss mice weighing 27 to 31 g. The tests were carried out on groups of six mice. Test compounds were administered intraperitoneally, as injectable solutions prepared with physiological saline solution and optionally one drop of Tween 80.

Another series concerns HeLa culture. Nature of the series: Metaphase block stages in stained tissue cultures. Type of series: cell-based. The method, then:
The test compounds were dissolved in the tissue cultures (HeLa culture) in concentrations ranging from the threshold dose of 1×10^-3 μg./ml. up to 100 μg./ml. In 24-hour cultures, by in vivo microscopic evaluation of the metaphase-arresting affect the following results were obtained.
Under similar conditions but using stained tissue cultures slight differences could be observed which can be classified as follows:
The first stage (minimal effective dose) is characterized by an increased ratio of blocked mitoses. A part is abnormal mitoses, for example three-group mitosis or polar chromosomes also occur. Generally the anaphases have already disappeared.
In the second stage a strong metaphase blocking is observed and practically there is no regulare mitosis present. Chromosomes are in the form of a loose glomus. The proportion of interphase cells is low.
In the third stage the chromosomas are aggregated in a mass in the middle of the cell. This state is called picnomitosis of "Ball-Metaphase".
In the fourth stage already the interphase cells are influenced. More particularly, the number of the blocked cells is decreased since they are not able to take part in mitosis. The cytoplasm of the cells (in interphase) is extended, its border is irregular, "fringy", the cells frequently have an elongated, fibroplast-like shape.
Finally, in the fifth stage the cytoplasm is filled in by a fine, reticular structure and the interphase cell has unambiguously been killed by the treatment.

The subject of another series is P 388 mouse leukaemia. Nature of the series: P 388 leukaemia test (life span of i.p. transplanted mice). Type of series: in vivo, BDF hybrid mice. Conditions: for response vs control in vivo at 0.4 mg/kg / response vs control in vivo at 4 mg/kg / response vs control in vivo at 8 mg/kg: Mus musculus, P388, ip, mean length of life, read-out: Treated/Control. The method, then: (§1) The effect of the new compounds on intraperitoneally transplantable tumors (P 388 mouse leukaemia and NK/Ly ascites lymphoma) is described hereinbelow. The P 388 leukaemia test was performed on BDF hybrid mice. The tests were carried out on groups of six mice and 10^6 tumor cells/animal were transplanted intraperitoneally. Administration of the test compounds was started in the 24th hour after transplantation. Treatment was performed intraperitoneally and the body weight and state of animals was controlled every day. The effect obtained on the treated animals is expressed in % of the mean length of life of the control group, given in days.

A further series has as its system NK/Ly ascites lymphoma. Nature of the series: NK/Ly ascites tumour test (survival and tumor-free animals). Type of series: in vivo, Swiss-H/Riop outbred mice. The protocol:
as §1
Into groups of ten Swiss-H/Riop outbred mice from our own breed 5×10^6 ascites tumour cells were transplanted intraperitoneally. In the 24th hour after transplantation treatment was started and the compounds were administered daily, altogether five times. The mean length of life of the control group amounted to 15.7 days.

In general, LD50 refers to the dose at which mortality reaches 50%. A higher LD50 goes with a less toxic substance. Consider `CCC1(O)CC2CN(CCc3c([nH]c4ccccc34)C(C(=O)OC)(c3cc4c(cc3OC)N(COCC(C)C)C3C(O)(C(=O)OC)C(OC(C)=O)C5(CC)C=CCN6CCC43C65)C2)C1` (stereo not shown) [N-Desmethyl-N-(isobutoxymethyl)-vinblastine], for which, in series [1], the median lethal dose (LD50) was roughly 60 mg/kg and the Paralytic side effect came to 0. Further, the relative effectiveness result in the series on HeLa culture is reported as “an order of a magnitude lower effect”. Further, the “effect on mitosis at lowest dose” value in the series with HeLa culture (0.001 μg./ml.) was “regular mitoses could still be observed”. In addition, in the series with P 388 mouse leukaemia (8 × 0.4 mg./kg. i.p.), the “Mean length of life, treated” value is 13.7 days and the response vs control in vivo at 0.4 mg/kg stood at 133%. In the series on P 388 mouse leukaemia (8 × 4.0 mg./kg. i.p.), the “Mean length of life, treated” value is given as 20.0 days and the response vs control in vivo at 4 mg/kg came to 194%. Further, in the series on P 388 mouse leukaemia (8 × 8.0 mg./kg. i.p.), the “Mean length of life, treated” value amounted to 20.5 days and the response vs control in vivo at 8 mg/kg stood at 208%. Moreover, in the series on NK/Ly ascites lymphoma (5 × 4.0 mg./kg. i.p.), the alive is 10/10, the “on the 25th day tumor-free” value was 10/10 and the “on the 30th day tumor-free” value is 7/10.
Take `CCCCCCCOCN1c2cc(OC)c(C3(C(=O)OC)CC4CN(CCc5c3[nH]c3ccccc53)CC(O)(CC)C4)cc2C23CCN4CC=CC(CC)(C(OC(C)=O)C(O)(C(=O)OC)C12)C43` (stereo not shown) [N-Desmethyl-N-(heptoxymethyl)-vinblastine]: in series [1], the 50% lethal dose (LD50) was roughly 60 mg/kg and the Paralytic side effect was 0. Also, in the series with HeLa culture, the relative effectiveness result is reported as “most effective compound”. Further, in the series with P 388 mouse leukaemia (8 × 0.4 mg./kg. i.p.), the “Mean length of life, treated” value came to 14.3 days and the response vs control in vivo at 0.4 mg/kg was found to be 139%. In the series with P 388 mouse leukaemia (8 × 4.0 mg./kg. i.p.), the “Mean length of life, treated” value was found to be 18.7 days and the response vs control in vivo at 4 mg/kg is 181%. In the series with P 388 mouse leukaemia (8 × 8.0 mg./kg. i.p.), the “Mean length of life, treated” value is on record as 21.3 days and the response vs control in vivo at 8 mg/kg turned out to be 247%. Also, in the series on NK/Ly ascites lymphoma (5 × 6.0 mg./kg. i.p.), the alive was 10/10, the “on the 25th day tumor-free” value is on record as 7/10 and the “on the 30th day tumor-free” value is 3/10.
